Measurements reported in the supplement of paper PMC10307832.

Tests used:
Experiment in all cases: relative viability (nuclei count vs DMSO), 5 days (fraction); higher = more cells survive
ChaGo-K-1 = tested on: ChaGo-K-1
Method in brief: (§1)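 Relative viability was taken as the ratio of nuclei in treated wells to nuclei in vehicle wells. Lung cancer cell lines in 1536-well plates received compounds by pin tool one day after seeding, either one drug alone or a fixed anchor-drug dose plus five library-drug doses (not always all listed) in √10 steps. Nuclei were counted on 4× images after 5 days of treatment, and values are medians of duplicate plates.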

UMC-11 = tested on: UMC-11
Method in brief: as §1

NCI-H1734 = tested on: NCI-H1734
Method in brief: as §1

NCI-H2170 = tested on: NCI-H2170
Method in brief: as §1

RERF-LC-KJ = tested on: RERF-LC-KJ
Method in brief: as §1

NCI-H1651 = tested on: NCI-H1651
Method in brief: as §1

HCC-366 = tested on: HCC-366
Method in brief: as §1

PC-3 [JPC-3] = tested on: PC-3 [JPC-3]
Method in brief: as §1

EPLC-272H = tested on: EPLC-272H
Method in brief: as §1

LOU-NH91 = tested on: LOU-NH91
Method in brief: as §1

NCI-H2087 = tested on: NCI-H2087
Method in brief: as §1

ABC-1 = tested on: ABC-1
Method in brief: as §1

LU99A = tested on: LU99A
Method in brief: as §1

NCI-H2228 = tested on: NCI-H2228
Method in brief: as §1

LC-2-ad = tested on: LC-2-ad
Method in brief: as §1

NCI-H1944 = tested on: NCI-H1944
Method in brief: as §1

NCI-H460 = tested on: NCI-H460
Method in brief: as §1

NCI-H1755 = tested on: NCI-H1755
Method in brief: as §1

HCC-78 = tested on: HCC-78
Method in brief: as §1

NCI-H3122 = tested on: NCI-H3122
Method in brief: as §1

CAL-12T = tested on: CAL-12T
Method in brief: as §1

NCI-H2405 = tested on: NCI-H2405
Method in brief: as §1

With CC(C)Oc1cc(Nc2nc(N[C@@H](C)c3ccc(F)cn3)ncc2Cl)n[nH]1 [AZ23] + C[C@@H](Oc1cc(-c2cnn(C3CCNCC3)c2)cnc1N)c1c(Cl)ccc(F)c1Cl [Crizotinib] (partner 1 µM) the relative viability (ChaGo-K-1; first compound 0.01 µM) was 1.37, the relative viability (ChaGo-K-1; first compound 0.03162 µM) was 1.08 and the relative viability (ChaGo-K-1; first compound 0.3162 µM) was 1.24. The relative viability (UMC-11; first compound 0.01 µM) was 0.552, the relative viability (UMC-11; first compound 0.03162 µM) was 0.73 and the relative viability (UMC-11; first compound 0.3162 µM) was 0.555. It also gave a relative viability (NCI-H1734; first compound 0.01 µM) of 0.713, a relative viability (NCI-H1734; first compound 0.03162 µM) of 0.782 and a relative viability (NCI-H1734; first compound 0.3162 µM) of 0.76. The relative viability (NCI-H2170; first compound 0.01 µM) was 1.67, the relative viability (NCI-H2170; first compound 0.03162 µM) was 1.45 and the relative viability (NCI-H2170; first compound 0.3162 µM) was 1.42. It also gave a relative viability (RERF-LC-KJ; first compound 0.01 µM) of 1, a relative viability (RERF-LC-KJ; first compound 0.03162 µM) of 1 and a relative viability (RERF-LC-KJ; first compound 0.3162 µM) of 0.915. It also gave a relative viability (NCI-H1651; first compound 0.01 µM) of 0.94, a relative viability (NCI-H1651; first compound 0.03162 µM) of 0.97 and a relative viability (NCI-H1651; first compound 0.3162 µM) of 0.875. For the same compound, the relative viability (HCC-366; first compound 0.01 µM) was 0.688, the relative viability (HCC-366; first compound 0.03162 µM) was 1.05 and the relative viability (HCC-366; first compound 0.3162 µM) was 0.587. The relative viability (PC-3 [JPC-3]; first compound 0.01 µM) was 1.3, the relative viability (PC-3 [JPC-3]; first compound 0.03162 µM) was 1.07 and the relative viability (PC-3 [JPC-3]; first compound 0.3162 µM) was 0.91. For the same compound, the relative viability (EPLC-272H; first compound 0.01 µM) was 1.19, the relative viability (EPLC-272H; first compound 0.03162 µM) was 1.19 and the relative viability (LOU-NH91; first compound 0.01 µM) was 0.719. For the same compound, the relative viability (LOU-NH91; first compound 0.03162 µM) was 0.727, the relative viability (LOU-NH91; first compound 0.3162 µM) was 0.771 and the relative viability (NCI-H2087; first compound 0.01 µM) was 1.16. For the same compound, the relative viability (NCI-H2087; first compound 0.03162 µM) was 1.11, the relative viability (NCI-H2087; first compound 0.3162 µM) was 1.04 and the relative viability (ABC-1; first compound 0.01 µM) was 0.752. It also gave a relative viability (ABC-1; first compound 0.03162 µM) of 1.27, a relative viability (ABC-1; first compound 0.3162 µM) of 1.25 and a relative viability (LU99A; first compound 0.01 µM) of 0.617. The relative viability (LU99A; first compound 0.03162 µM) was 0.563, the relative viability (LU99A; first compound 0.3162 µM) was 0.6 and the relative viability (NCI-H2228; first compound 0.01 µM) was 0.64. For the same compound, the relative viability (NCI-H2228; first compound 0.03162 µM) was 0.449, the relative viability (NCI-H2228; first compound 0.3162 µM) was 0.33 and the relative viability (LC-2-ad; first compound 0.01 µM) was 0.471. For the same compound, the relative viability (LC-2-ad; first compound 0.03162 µM) was 0.458, the relative viability (LC-2-ad; first compound 0.3162 µM) was 0.436 and the relative viability (NCI-H1944; first compound 0.01 µM) was 1.11. For the same compound, the relative viability (NCI-H1944; first compound 0.03162 µM) was 1.18, the relative viability (NCI-H1944; first compound 0.3162 µM) was 1.17 and the relative viability (NCI-H460; first compound 0.01 µM) was 0.827. It also gave a relative viability (NCI-H460; first compound 0.03162 µM) of 1.04, a relative viability (NCI-H460; first compound 0.3162 µM) of 0.834 and a relative viability (NCI-H1755; first compound 0.01 µM) of 1.1. For the same compound, the relative viability (NCI-H1755; first compound 0.03162 µM) was 1.01, the relative viability (NCI-H1755; first compound 0.3162 µM) was 0.964 and the relative viability (HCC-78; first compound 0.01 µM) was 0.318. For the same compound, the relative viability (HCC-78; first compound 0.03162 µM) was 0.39, the relative viability (HCC-78; first compound 0.3162 µM) was 0.336 and the relative viability (NCI-H3122; first compound 0.01 µM) was 0.28. The relative viability (NCI-H3122; first compound 0.03162 µM) was 0.262, the relative viability (NCI-H3122; first compound 0.3162 µM) was 0.305 and the relative viability (CAL-12T; first compound 0.01 µM) was 0.324. The relative viability (CAL-12T; first compound 0.03162 µM) was 0.759, the relative viability (CAL-12T; first compound 0.3162 µM) was 0.583 and the relative viability (NCI-H2405; first compound 0.01 µM) was 0.825. For the same compound, the relative viability (NCI-H2405; first compound 0.03162 µM) was 0.904 and the relative viability (NCI-H2405; first compound 0.3162 µM) was 0.854.
